Patent publication US9833497B2, “Human originated EGF domain proteins and use of the same” (CHENGDU SOURCEBIO LIMITED-LIABILITY COMPANY, priority 2013, dated 2017)

Key:
Type in all cases: cell-based
Moraxella catarrhalis = test: MIC against Gram-negative bacteria: Moraxella catarrhalis; settings: for MIC against M. catarrhalis: Moraxella catarrhalis; for MIC against M. catarrhalis / MIC M. catarrhalis: 96-well plate, 37° C., 10 h
In short: (§1)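 Bacteria grown in LB at 37° C with shaking to McFarland 0.5, pelleted and resuspended in fresh LB, then seeded at 5×10^5 CFU/mL per well. Purified recombinant human EGF domain proteins were two-fold serially diluted in triplicate and plates shaken at 37° C, 175 rpm. MIC is the lowest protein concentration with no bacterial growth.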

Proteus vulgaris = test: MIC against Gram-negative bacteria: Proteus vulgaris; settings: for MIC against P. vulgaris: Proteus vulgaris; for MIC against P. vulgaris / MIC P. vulgaris: 96-well plate, 37° C., 10 h
In short: as §1

E. coli BL21 = test: MIC against Gram-negative bacteria: E. coli BL21; settings: for MIC against E. coli BL21 / MIC E. coli BL21: 96-well plate, 37° C., 10 h
In short: as §1

Aeromonas hydrophila = test: MIC against Gram-negative bacteria: Aeromonas hydrophila; settings: for MIC against A. hydrophila: Aeromonas hydrophila; for MIC against A. hydrophila / MIC A. hydrophila: 96-well plate, 37° C., 10 h
In short: as §1

Klebsiella pneumonia = test: MIC against Gram-negative bacteria: Klebsiella pneumonia; settings: for MIC against K. pneumonia: Klebsiella pneumonia; for MIC against K. pneumonia / MIC K. pneumonia: 96-well plate, 37° C., 10 h
In short: as §1

Citrobacter diversus = test: MIC against Gram-negative bacteria: Citrobacter diversus; settings: for MIC against C. diversus: Citrobacter diversus; for MIC against C. diversus / MIC C. diversus: 96-well plate, 37° C., 10 h
In short: as §1

E. coli DH5α = test: Antibacterial activity: MIC and growth curve against E. coli DH5α in 96-well plate; settings: minimal inhibitory concentration against E. coli DH5α; 96-well plate, 5×10^5 CFU/mL, 37° C., judged after 8 h
In short: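 Log-phase bacteria (OD600 ~0.5) resuspended in LB at 5×10^5 CFU/mL, exposed to recombinant protein at 50, 25, 12.5 μg/mL final in triplicate, 37 °C shaking at 175 rpm. OD600 read every 30 min; MIC is lowest concentration showing no growth.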

Proteus mirabilis = test: MIC against Gram-negative bacteria: Proteus mirabilis; settings: for MIC against P. mirabilis: Proteus mirabilis; for MIC against P. mirabilis / MIC P. mirabilis: 96-well plate, 37° C., 10 h
In short: as §1

Serratia marcescens = test: MIC against Gram-negative bacteria: Serratia marcescens; settings: for MIC against S. marcescens: Serratia marcescens; for MIC against S. marcescens / MIC S. marcescens: 96-well plate, 37° C., 10 h
In short: as §1

Enterobacter cloacae = test: MIC against Gram-negative bacteria: Enterobacter cloacae; settings: for MIC against E. cloacae: Enterobacter cloacae; for MIC against E. cloacae / MIC E. cloacae: 96-well plate, 37° C., 10 h
In short: as §1

Pseudomonas aeruginosa = test: MIC against Gram-negative bacteria: Pseudomonas aeruginosa; settings: for MIC against P. aeruginosa: Pseudomonas aeruginosa; for MIC against P. aeruginosa / MIC P. aeruginosa: 96-well plate, 37° C., 10 h
In short: as §1

PRT1269 (DIDECQTRNGGCDHFCKNIVGSFDCGCKKGFKLLTDEKSCQ; listed as Homo sapiens)
12.5 µg/mL: MIC against K. pneumonia (Klebsiella pneumonia; 5×10^5 CFU/mL) | MIC against C. diversus (Citrobacter diversus; 5×10^5 CFU/mL) | MIC (E. coli DH5α) | MIC against P. mirabilis (Proteus mirabilis; 5×10^5 CFU/mL) | MIC against S. marcescens (Serratia marcescens; 5×10^5 CFU/mL)
25 µg/mL: MIC against E. cloacae (Enterobacter cloacae; 5×10^5 CFU/mL) | MIC against P. aeruginosa (Pseudomonas aeruginosa; 5×10^5 CFU/mL)
50 µg/mL: MIC against M. catarrhalis (Moraxella catarrhalis; 5×10^5 CFU/mL) | MIC against P. vulgaris (Proteus vulgaris; 5×10^5 CFU/mL) | MIC against E. coli BL21 (E. coli BL21; E. coli BL21, 5×10^5 CFU/mL) | MIC against A. hydrophila (Aeromonas hydrophila; 5×10^5 CFU/mL)

PRT614 (CNCNLYGTMKQQSSCNPVTGQCECLPHVTGQDCGACDPGFYNLQSGQGCER; listed as Homo sapiens)
50 µg/mL: MIC E. coli BL21 (E. coli BL21; 5×10^5 CFU/mL) | MIC K. pneumonia (Klebsiella pneumonia; 5×10^5 CFU/mL) | MIC (E. coli DH5α) | MIC P. aeruginosa (Pseudomonas aeruginosa; 5×10^5 CFU/mL)
12.5 µg/mL: MIC M. catarrhalis (Moraxella catarrhalis; 5×10^5 CFU/mL) | MIC P. vulgaris (Proteus vulgaris; 5×10^5 CFU/mL) | MIC A. hydrophila (Aeromonas hydrophila; 5×10^5 CFU/mL) | MIC E. cloacae (Enterobacter cloacae; 5×10^5 CFU/mL)
25 µg/mL: MIC C. diversus (Citrobacter diversus; 5×10^5 CFU/mL) | MIC P. mirabilis (Proteus mirabilis; 5×10^5 CFU/mL) | MIC S. marcescens (Serratia marcescens; 5×10^5 CFU/mL)

PRT719 (CNNPCEQFNGGCSHICAPGPNGAECQCPHEGNWYLANNRKHCI; listed as Homo sapiens)
12.5 µg/mL: MIC E. coli BL21 (E. coli BL21; 5×10^5 CFU/mL) | MIC A. hydrophila (Aeromonas hydrophila; 5×10^5 CFU/mL) | MIC K. pneumonia (Klebsiella pneumonia; 5×10^5 CFU/mL)
50 µg/mL: MIC M. catarrhalis (Moraxella catarrhalis; 5×10^5 CFU/mL) | MIC P. vulgaris (Proteus vulgaris; 5×10^5 CFU/mL) | MIC C. diversus (Citrobacter diversus; 5×10^5 CFU/mL) | MIC (E. coli DH5α) | MIC P. mirabilis (Proteus mirabilis; 5×10^5 CFU/mL) | MIC S. marcescens (Serratia marcescens; 5×10^5 CFU/mL) | MIC E. cloacae (Enterobacter cloacae; 5×10^5 CFU/mL) | MIC P. aeruginosa (Pseudomonas aeruginosa; 5×10^5 CFU/mL)

PRT1031 (MCVTYHNGTGYCKCPEGFLGEYCQ; listed as Homo sapiens)
50 µg/mL: MIC (Proteus vulgaris; P. vulgaris, 10 h cultivation at 37° C.) | MIC (E. coli BL21; E. coli BL21, 10 h cultivation at 37° C.) | MIC (Aeromonas hydrophila; A. hydrophila, 10 h cultivation at 37° C.) | MIC (Klebsiella pneumonia; K. pneumonia, 10 h cultivation at 37° C.)
12.5 µg/mL: MIC (Moraxella catarrhalis; M. catarrhalis, 10 h cultivation at 37° C.) | MIC (E. coli DH5α) | MIC (Proteus mirabilis; P. mirabilis, 10 h cultivation at 37° C.) | MIC (Serratia marcescens; S. marcescens, 10 h cultivation at 37° C.) | MIC (Enterobacter cloacae; E. cloacae, 10 h cultivation at 37° C.) | MIC (Pseudomonas aeruginosa; P. aeruginosa, 10 h cultivation at 37° C.)
25 µg/mL: MIC (Citrobacter diversus; C. diversus, 10 h cultivation at 37° C.)

PRT263 (CSKNNGGCSPYATCKSTGDGQRTCTCDTAHTVGDGLTC; listed as Homo sapiens)
25 µg/mL: MIC (μg/mL) E. coli BL21 (E. coli BL21; E. coli BL21, 10 h cultivation at 37° C., 5×10^5 CFU/mL) | MIC (μg/mL) A. hydrophila (Aeromonas hydrophila; A. hydrophila, 10 h cultivation at 37° C., 5×10^5 CFU/mL) | MIC (μg/mL) K. pneumonia (Klebsiella pneumonia; K. pneumonia, 10 h cultivation at 37° C., 5×10^5 CFU/mL) | MIC (E. coli DH5α)
50 µg/mL: MIC (μg/mL) S. marcescens (Serratia marcescens; S. marcescens, 10 h cultivation at 37° C., 5×10^5 CFU/mL)
12.5 µg/mL: MIC (μg/mL) M. catarrhalis (Moraxella catarrhalis; M. catarrhalis, 10 h cultivation at 37° C., 5×10^5 CFU/mL) | MIC (μg/mL) P. vulgaris (Proteus vulgaris; P. vulgaris, 10 h cultivation at 37° C., 5×10^5 CFU/mL) | MIC (μg/mL) C. diversus (Citrobacter diversus; C. diversus, 10 h cultivation at 37° C., 5×10^5 CFU/mL) | MIC (μg/mL) P. mirabilis (Proteus mirabilis; P. mirabilis, 10 h cultivation at 37° C., 5×10^5 CFU/mL) | MIC (μg/mL) E. cloacae (Enterobacter cloacae; E. cloacae, 10 h cultivation at 37° C., 5×10^5 CFU/mL) | MIC (μg/mL) P. aeruginosa (Pseudomonas aeruginosa; P. aeruginosa, 10 h cultivation at 37° C., 5×10^5 CFU/mL)

PRT1339 (EINNCLLPSAGGCHDNASCLYVGPGQNECECKKGFRGNGIDCE; listed as Homo sapiens)
50 µg/mL: MIC against P. vulgaris (Proteus vulgaris; 5×10^5 CFU/mL) | MIC against A. hydrophila (Aeromonas hydrophila; 5×10^5 CFU/mL)
12.5 µg/mL: MIC against M. catarrhalis (Moraxella catarrhalis; 5×10^5 CFU/mL) | MIC against E. coli BL21 (E. coli BL21; E. coli BL21, 5×10^5 CFU/mL) | MIC against E. cloacae (Enterobacter cloacae; 5×10^5 CFU/mL) | MIC against P. aeruginosa (Pseudomonas aeruginosa; 5×10^5 CFU/mL)
25 µg/mL: MIC against K. pneumonia (Klebsiella pneumonia; 5×10^5 CFU/mL) | MIC against C. diversus (Citrobacter diversus; 5×10^5 CFU/mL) | MIC (E. coli DH5α) | MIC against P. mirabilis (Proteus mirabilis; 5×10^5 CFU/mL) | MIC against S. marcescens (Serratia marcescens; 5×10^5 CFU/mL)
